Data on 25 compounds can be found in US4175544A, “Iodo-aryl carbonates for use in methods in radiography” (Lafayette Pharmacal Inc., priority 1978, dated 1979).

The test system of data set [1] is lymph nodes (popliteal and iliac). The settings on record: dog, in vivo.
Method: Four iodinated organic carbonates prepared as described hereinabove were evaluated for use as lymphographic agents in laboratory dogs.
Six adult mongrel dogs, preconditioned for at least two weeks at the Lafayette Pharmacal, Inc. facilities, were used for the study. The dogs were removed from food the evening prior to dosing. Each animal was first anesthetized with Rompun and sodium pentobarbital and intubated to assist in breathing. A standard lymphogram was then performed on one rear leg only of each animal using known laboratory procedures. Specifically, a blue dye was first injected between the toes of the right hind limb to locate the lymph ducts. A single duct was then disected out and cannulated. One of the six compounds was then selected and a syringe pump used to inject the test compound into the duct at a constant rate. In this regard, the dogs were injected with an effective amount of one (1) cc of test substance per 20 lbs. of body weight. The iodinated phenyl compounds were brought to about body temperature prior to the injecting and then were injected while at about the body temperature.
Radiographs were then taken of each animal after confirming the location of the injected bolus by fluoroscopy means. The animals were given atropine sulfate and observations made while they were allowed to recover from the anesthetic unassisted.
The animals were then returned to their cages and radiographs were taken at the end of 24 hours, 3 days and 1, 2, 3, 4 and 6 weeks to determine the radiographic clearance rate of each tested compound. Daily urine samples were also collected and subjected to fluorescent exitation analysis to determine the urinary clearance rate for each compound. Six weeks after the initial lymphogram, the animals were sacrificed and the popliteal and iliac nodes on both sides removed. The nodes from the dosed side and undosed side of each animal were then compared histopathologically.
Data set [2] has as its system albino mice. Kind of data set: Initial toxicity screen: Approximate Lethal Dose by intraperitoneal injection (Deichmann and LeBlanc). In kind it is in vivo. The settings on record: for Approximate Lethal Dose (ALD): intraperitoneal, albino mice, neat liquid or suspension, footnote (b): largest dose administered (e, f, i, p, q). On the procedure: As an initial toxicity screen for the compounds shown hereinabove, the neat liquid or suspension of the material was injected into the peritoneal cavity of albino mice and the Approximate Lethal Dose (ALD) determined using the method of Deichmann and LeBlanc (W. B. Deichmann and T. J. LeBlanc, J. Ind. Hyg., 25, 415 (1943)) the results of which are presented in Table II, as set forth hereinafter.
Approximate Interperitoneal Toxicity in Mice
Approximate Lethal Dose Ml/Kg

A further data set deals with brain and spinal cord. Kind of data set: Suboccipital study of laboratory animals (neurotoxicity, brain and spinal cord histopathology). In kind it is in vivo, laboratory rats. The settings on record: rat; for Overall / histopathological response: 0.1 ml suboccipital injection, 1 to 14 weeks; for Difficulty with righting responses / Recovery from the injection procedure: suboccipital injection; for Recovery from the injection procedure: as a group; for Lipid puddle formation: compared with air and Pantopaque. The protocol:
Six iodinated phenyl carbonate compounds prepared as described above, as well as air and Pantopaque, a known prior art radiographic compound, were injected suboccipitally into separate groups of 30 laboratory rats. The six iodinated compounds under examination were p-iodobenzyl-n-hexyl carbonate, p-iodobenzyl-n-octyl carbonate, p-iodobenzyl-2-octyl carbonate, 2-ethylhexyl-p-iodobenzyl carbonate, n-hexyl-3-(p-iodophenyl)propyl carbonate and n-hexyl-2-(p-iodobenzyl)butyl carbonate. Six rats from each injected group were then sacrificed at periodic intervals and the brain and spinal cord removed for histopathological evaluation. By comparing the results of air and Pantopaque with the results using the iodinated compounds, an evaluation of their relative neurotoxicity was obtained.
The groups of rats were first subjected to standard quarantine procedure at the Lafayette Pharmacol, Inc. facilities for at least two weeks prior to dosing. About 18 hours prior to dosing, food was withdrawn but water was allowed ad lib. During injection, each animal was anesthetized in an ether chamber and the back of the neck closely clipped. After placing the animal on a board with the head declined at 45°, a puncture was made just at the base of the atlas and 0.1 ml. of the selected test substance was injected. Radiographs were then taken immediately after dosing to confirm the intrathecal location of the injected bolus, and the animals were returned to their cages for observation.
One group of six animals for each tested substance was then sacrificed at the following elapsed times post injection: 1 week; 2 weeks; 4 weeks; 8 weeks and 14 weeks. At sacrifice, the animal were perfused with saline and formalin. Each animal was again radiographed and the brain and spinal cord then removed and stored for histopathological study.

Data set [3] deals with albino mice. Nature of the data set: Initial toxicity screen: Approximate Lethal Dose by intraperitoneal injection (Deichmann and LeBlanc). In kind it is in vivo. The settings on record: 20% w/v in Sesame oil, for r also footnote (b): largest dose administered.
Data set [4] concerns lung. The settings on record: dog, in vivo.
Method: (§1) Food was withdrawn from each animal 12 hours prior to dosing with water given ad lib. The animals were then first anesthetized with sodium pentobarbital and maintained on halothane. Each animal was then intubated with a tracheal tube and scouting X-ray films were taken to confirm its position. Next, a stainless steel guide wire was passed through a polypropylene tube, i.e., insuflation tube, and this combination was passed into the animal's lung. The position of this guide wire was then confirmed by fluoroscopy and the guide wire then removed, thus leaving the insulfation tube in place.
(§2) In this regard, the amount of selected iodinated phenyl carbonate compound varied for each animal according to weight, with 6 cc being given to the heaviest test dog. Oxygen at 20 psi was then used to insuflate a caudal lobe of one lung of each animal while monitoring with fluoroscopy. Lateral and direct view radiographs were then taken. […] Food was then given after 12 hours.
(§3) At 2 weeks, the animals were then anesthetized and radiographs taken while the lungs were expanded by air insuflation. The animals were then sacrificed by injection of saline and the dosed lobe of each animal examined histopathologically and compared with the corresponding undosed lobe.
For data set [5], the system named is lung. Nature of the data set: Bronchography study of laboratory animals (insuflation of a caudal lobe of one lung). The settings on record: dog, dosed lobe, 2 weeks.
Method: as §1, §2, §3

On to `CCCCOC(=O)SCc1ccc(I)cc1` [S-(p-iodobenzyl)-n-butyl thiolcarbonate], for which, in data set [1], the “Histopathology of dosed nodes” value is given as “mild granulomatous lymphadenitis or lipoidal lymphadenopathy”; the “Overall result after six weeks” value is on record as “excellent overall results with only minor histopathological responses”; the “Rate of clearance and elimination (order, fastest to slowest)” value (from here on “Rate of clearance and elimination”) was “almost the same”; the “Time to radiographically clear” value is recorded as at most 6 weeks.
Take `CC(C)COC(=O)OCc1ccc(I)cc1` [a, p-Iodobenzyl Isobutyl Carbonate]: in the data set with albino mice [2], the “Approximate Lethal Dose (ALD)” value was determined as 3 mL/kg.
Same read-out and setting: to `CCCCCOC(=O)OCc1ccc(I)cc1` [b, n-Amyl-p-Iodobenzyl Carbonate] belongs 3 mL/kg.
`CCCCCCOC(=O)OCc1ccc(I)cc1` [c, n-Hexyl-p-Iodobenzyl Carbonate]: the “Approximate Lethal Dose (ALD)” value in the data set on albino mice [2] amounted to 7 mL/kg. Besides, in the data set on brain and spinal cord, the “Overall / histopathological response” value is listed as “Relatively more severe histopathological responses”, the “Difficulty with righting responses” value was “more animals exhibiting righting difficulty” and the “Recovery from the injection procedure” value is given as “taking longer to recover”. Besides, in data set [1], the “Rate of clearance and elimination” value is “p-iodobenzyl-n-butyl carbonate, p-iodobenzyl-n-hexyl carbonate, p-iodobenzyl-n-octyl carbonate and ethiodol”; the “Time to radiographically clear” value is at most 6 weeks.
As to `CC(C)CC(C)OC(=O)OCc1ccc(I)cc1` (stereo not drawn) [d, p-Iodobenzyl-4-methyl-2-Pentyl Carbonate], the “Approximate Lethal Dose (ALD)” value in the data set with albino mice [2] came to 7 mL/kg.
Consider `CCCCCCCCOC(=O)OCc1ccc(I)cc1` [e, n-Octyl-p-Iodobenzyl Carbonate], for which the “Approximate Lethal Dose (ALD)” value in the data set with albino mice [2] turned out to be 15 mL/kg. Further, in the data set on brain and spinal cord, the “Overall / histopathological response” value is “overall responses close to air and Pantopaque approximating normal”; the Lipid puddle formation result is “slightly more lipid puddle formation”; the “Difficulty with righting responses” value is “an occasional animal showing some difficulty with righting responses”. In data set [1], the “Histopathology of dosed nodes” value was “mild granulomatous lymphadenitis or lipoidal lymphadenopathy”, the “Overall result after six weeks” value is reported as “excellent overall results with only minor histopathological responses”, the “Radiographic state of iliac node” value is listed as “small droplets could be seen” and the “Radiographic state of popliteal node” value was “clear”. For the same compound, the “Rate of clearance and elimination” value in data set [1] is “p-iodobenzyl-n-hexyl carbonate, p-iodobenzyl-n-octyl carbonate and ethiodol”.
`CCCCCCCCCCOC(=O)OCc1ccc(I)cc1` [f, n-Decyl-p-Iodobenzyl Carbonate]: the “Approximate Lethal Dose (ALD)” value in the data set with albino mice [2] stood at 10.5 mL/kg.
With `CCCCC(CC)COC(=O)OCc1ccc(I)cc1` (stereo not drawn) [g, 2-Ethylhexyl-p-Iodobenzyl Carbonate], in the data set on albino mice [2], the “Approximate Lethal Dose (ALD)” value came out at 15 mL/kg. Besides, in the data set with brain and spinal cord, the “Overall / histopathological response” value is listed as “Relatively more severe histopathological responses”, the “Difficulty with righting responses” value is listed as “more animals exhibiting righting difficulty” and the “Recovery from the injection procedure” value is recorded as “taking longer to recover”.
With `CCCC(CC)OC(=O)OCc1ccc(I)cc1` (stereo not drawn) [h, 3-Hexyl-p-Iodobenzyl Carbonate], the “Approximate Lethal Dose (ALD)” value in the data set with albino mice [2] was 3 mL/kg.
With `CCCCCCC(C)OC(=O)OCc1ccc(I)cc1` (stereo not drawn) [i, 2-Octyl-p-Iodobenzyl Carbonate], in the data set with albino mice [2], the “Approximate Lethal Dose (ALD)” value is 15 mL/kg. In the data set with brain and spinal cord, the “Overall / histopathological response” value is “Relatively more severe histopathological responses”, the “Difficulty with righting responses” value is given as “more animals exhibiting righting difficulty” and the “Recovery from the injection procedure” value was “taking longer to recover”.
`CCCCCCOC(=O)Oc1ccc(I)cc1` [j, n-Hexyl-p-Iodophenyl Carbonate]: the “Approximate Lethal Dose (ALD)” value in the data set with albino mice [2] worked out at 7 mL/kg.
Still for that read-out and setting: to `CCCCCCCCOC(=O)Oc1ccc(I)cc1` [k, n-Octyl-p-Iodphenyl Carbonate] belongs 7 mL/kg.
Same read-out and setting: to `CCCCCCOC(=O)OC(C)c1ccc(I)cc1` (stereo not drawn) [l, n-Hexyl-p-Iodo-sec-Phenethyl Carbonate] belongs 10.5 mL/kg; to `CCCCCCOC(=O)OCCc1ccc(I)cc1` [m, n-Hexyl-p-Iodophenethyl Carbonate], 7 mL/kg.
Take `CCCCCCOC(=O)OCCCc1ccc(I)cc1` [n, n-Hexyl-3-(p-Iodophenyl)Propyl Carbonate]: the “Approximate Lethal Dose (ALD)” value in the data set with albino mice [2] is 15 mL/kg. For the same compound, in the data set with brain and spinal cord, the “Overall / histopathological response” value is “Relatively more severe histopathological responses”, the “Difficulty with righting responses” value was “more animals exhibiting righting difficulty” and the “Recovery from the injection procedure” value was “taking longer to recover”.
With `CCCCCCOC(=O)OCCC(C)c1ccc(I)cc1` (stereo not drawn) [o, n-Hexyl-3-(p-Iodophenyl)Butyl Carbonate], in the data set with albino mice [2], the “Approximate Lethal Dose (ALD)” value amounted to 7 mL/kg.
Turning to `CCCCCCOC(=O)OCC(CC)Cc1ccc(I)cc1` (stereo not drawn) [p, n-Hexyl-2-(p-Iodobenzyl)Butyl Carbonate], the “Approximate Lethal Dose (ALD)” value in the data set on albino mice [2] is “greater than 15 Ml/Kg”. In the data set on brain and spinal cord, the “Overall / histopathological response” value is “overall responses close to air and Pantopaque approximating normal”; the Lipid puddle formation result is “slightly more lipid puddle formation”; the “Difficulty with righting responses” value was “an occasional animal showing some difficulty with righting responses”.
`CCOC(=O)OCc1ccc(I)cc1` [p-iodobenzyl ethyl carbonate]: in data set [1], the Clearance of nodes was about 3 days; the “Histopathology of dosed nodes” value is on record as “no change in the nodes”; the “Overall result after six weeks” value is “indistinguishable from undosed animals”; the “Rate of clearance and elimination” value is “fastest”.
As to `CCCCOC(=O)OCc1ccc(I)cc1` [p-iodobenzyl-n-butyl carbonate], in data set [1], the “Histopathology of dosed nodes” value was “no change in the nodes”; the “Overall result after six weeks” value is “indistinguishable from undosed animals”; the “Rate of clearance and elimination” value was “almost the same”; the “Time to radiographically clear” value is given as at most 6 weeks.
As for `CCCCCCOC(=O)OCC(CCCC)Cc1ccc(I)cc1` (stereo not drawn) [q, n-Hexyl-2-(p-Iodobenzyl)-n-Hexyl Carbonate], the “Approximate Lethal Dose (ALD)” value with albino mice [2] is listed as “greater than 15 Ml/Kg”.
`CCCCCCOC(=O)OCc1c(I)cc(I)c(N)c1I` [r, 3-Amino-2,4,6-Triiodobenzyl-n-Hexyl Carbonate]: the “Approximate Lethal Dose (ALD)” value in the data set on albino mice [3] is on record as “greater than 11 Ml/Kg”.
`CCCCCCOC(=O)OCc1cc(I)cc(I)c1` [s, 3,5-Diiodobenzyl-n-Hexyl Carbonate]: the “Approximate Lethal Dose (ALD)” value in the data set with albino mice [2] was determined as 5 mL/kg.
Same read-out and setting: to `CCCCCCCCOC(=O)OCc1cccc(I)c1` [t, m-Iodobenzyl-n-Octyl Carbonate] belongs “greater than 17 Ml/Kg”.
Consider `CCOC(=O)OCc1c(I)cc(I)c(NC(C)=O)c1I` [u, 3-acetamido-(2,4,6-triiodobenzyl)ethyl carbonate], for which, in the data set with lung [4], the “Histopathological alterations of dosed lobes” value is “obliterative granulomatous bronchiolitis”; the “Persistence of compound in lung” value is “some evidence the iodinated phenyl carbonate had persisted and was responsible for this granulomatous bronchiolitis”. In addition, in the data set on lung [5], the “Gross lesions related to instillation” value is given as “No gross lesions were found that appeared specifically related to instillation of the contrast medium”. Also, the “Approximate Lethal Dose (ALD)” value with albino mice [3] is “greater than 22 Ml/Kg”.
For `COC(=O)OC(C)c1ccc(I)cc1` (stereo not drawn) [v, p-Iodo-sec-Phenethyl Methyl Carbonate, reference compound], the “Intraperitoneal toxicity (in words)” value with albino mice [2] (compared with the compounds of Table II) was “more toxic”. Moreover, in the data set on albino mice [2], the “Approximate Lethal Dose (ALD)” value came out at 1.5 mL/kg.
